According to patent US12509431B2, “1,4-dihydroquinazolinone compounds and uses thereof” (Edgewise Therapeutics, Inc., priority 2022, dated 2025):

Columns and labels:
Format in all cases: biochemical
Porcine Atria myofibrils = assay: Myofibril ATPase assay (PK/LDH NADH-coupled), atria myofibrils
Outline: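 Values are EC25% (and, for inhibitors, EC50%) from 4-parameter logistic fits of activity normalized to vehicle wells. Rates came from linear regression of 340 nm kinetic reads (every 1.5-2 min, 75 min) of NADH-coupled ATP turnover by porcine atria myofibrils.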

[1] = target: T1, Porcine Ventricle myofibrils (left ventricle of Yucatan minipigs) (Sus scrofa, UniProt P79293); assay: Myofibril ATPase assay (PK/LDH NADH-coupled), ventricle myofibrils
T1 construct: Myofibrils from porcine cardiac muscle was isolated from the left ventricle of Yucatan minipigs; tissue Exemplar Genetics; host or cells: left ventricle of Yucatan minipigs
Outline: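 NADH depletion (A340) coupled through pyruvate kinase/lactate dehydrogenase reports ATPase rate of porcine left-ventricle myofibrils over 75 min kinetic reads. Regression slopes, vehicle-normalized, fitted by 4-parameter logistic give EC25 and, where available, EC50.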

[2] = test system: Rabbit Skeletal myofibrils (rabbit psoas muscle); assay: Myofibril ATPase assay (PK/LDH NADH-coupled), skeletal myofibrils
Outline: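 ATPase rate taken as linear-regression slope of A340 (NADH depletion through PK/LDH coupling) over a 75 min kinetic read, with psoas-derived rabbit skeletal myofibrils at pH 7.0. Four-parameter fits of vehicle-normalized activity give EC25 and, where reached, EC50.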

T1 sequence (P79293 whole entry): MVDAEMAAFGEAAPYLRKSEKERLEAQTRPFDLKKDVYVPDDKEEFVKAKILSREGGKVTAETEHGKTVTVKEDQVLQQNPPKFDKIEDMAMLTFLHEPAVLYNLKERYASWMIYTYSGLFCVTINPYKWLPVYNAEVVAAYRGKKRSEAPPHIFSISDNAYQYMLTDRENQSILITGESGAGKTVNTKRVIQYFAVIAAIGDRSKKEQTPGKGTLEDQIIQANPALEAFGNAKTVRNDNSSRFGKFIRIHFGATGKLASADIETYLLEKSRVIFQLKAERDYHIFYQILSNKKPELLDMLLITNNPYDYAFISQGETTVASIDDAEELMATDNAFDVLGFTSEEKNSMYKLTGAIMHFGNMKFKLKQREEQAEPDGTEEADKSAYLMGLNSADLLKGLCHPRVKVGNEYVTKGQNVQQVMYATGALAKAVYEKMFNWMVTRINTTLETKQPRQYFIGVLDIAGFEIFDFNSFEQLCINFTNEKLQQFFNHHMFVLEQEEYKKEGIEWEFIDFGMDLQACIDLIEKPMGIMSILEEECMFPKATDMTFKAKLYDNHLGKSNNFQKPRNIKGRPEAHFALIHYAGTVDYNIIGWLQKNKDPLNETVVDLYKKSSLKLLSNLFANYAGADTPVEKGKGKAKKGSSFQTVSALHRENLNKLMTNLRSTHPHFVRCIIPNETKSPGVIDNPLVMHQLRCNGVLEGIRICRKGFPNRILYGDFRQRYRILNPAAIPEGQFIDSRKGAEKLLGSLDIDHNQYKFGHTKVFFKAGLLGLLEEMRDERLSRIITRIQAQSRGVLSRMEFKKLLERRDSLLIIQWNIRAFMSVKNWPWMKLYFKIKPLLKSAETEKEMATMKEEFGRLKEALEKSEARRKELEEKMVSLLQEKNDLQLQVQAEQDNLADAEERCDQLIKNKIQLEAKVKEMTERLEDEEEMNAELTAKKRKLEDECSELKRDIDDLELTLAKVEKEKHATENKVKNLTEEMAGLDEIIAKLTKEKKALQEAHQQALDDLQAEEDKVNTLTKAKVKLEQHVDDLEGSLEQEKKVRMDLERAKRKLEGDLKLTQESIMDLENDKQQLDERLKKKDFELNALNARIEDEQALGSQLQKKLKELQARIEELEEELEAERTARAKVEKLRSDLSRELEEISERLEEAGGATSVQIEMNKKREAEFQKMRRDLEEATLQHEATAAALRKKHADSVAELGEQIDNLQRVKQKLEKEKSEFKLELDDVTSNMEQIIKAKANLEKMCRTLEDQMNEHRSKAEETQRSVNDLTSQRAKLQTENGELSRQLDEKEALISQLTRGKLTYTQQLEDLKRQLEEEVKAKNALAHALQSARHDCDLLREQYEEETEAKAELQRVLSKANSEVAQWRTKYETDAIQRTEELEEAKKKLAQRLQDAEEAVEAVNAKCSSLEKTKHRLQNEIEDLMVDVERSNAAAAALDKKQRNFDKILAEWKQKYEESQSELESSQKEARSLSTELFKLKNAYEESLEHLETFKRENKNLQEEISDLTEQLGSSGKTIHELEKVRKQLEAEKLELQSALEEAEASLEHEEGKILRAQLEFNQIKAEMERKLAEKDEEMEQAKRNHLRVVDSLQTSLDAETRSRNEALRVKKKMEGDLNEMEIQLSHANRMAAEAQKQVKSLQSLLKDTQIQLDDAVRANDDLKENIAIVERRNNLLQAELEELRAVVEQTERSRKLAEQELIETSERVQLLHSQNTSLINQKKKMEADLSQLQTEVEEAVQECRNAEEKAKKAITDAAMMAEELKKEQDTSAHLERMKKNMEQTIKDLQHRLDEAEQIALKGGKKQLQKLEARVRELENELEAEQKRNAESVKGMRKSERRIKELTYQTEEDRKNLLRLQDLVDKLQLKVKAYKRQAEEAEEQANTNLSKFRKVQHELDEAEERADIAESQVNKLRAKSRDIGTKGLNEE

Row | Structure (SMILES) | Porcine Atria IC25 (Porcine Atria myofibrils; Table 7) | Porcine Ventricle IC25 ([1]; Table 7) | Rabbit Psoas IC25 ([2]; Table 7) | Porcine Atria IC25 (Porcine Atria myofibrils; Table 8) | Porcine Ventricle IC25 ([1]; Table 8) | Rabbit Psoas IC25 ([2]; Table 8)
1 | C[C@H](NC(=O)[C@@H](C)N1Cc2nc(C#N)ccc2NC1=O)c1ccc(F)cc1F [Compound N46] | 100.00 µM | 100 µM | 100 µM | – | – | –
2 | CNC(=O)N1CC2(C1)c1cc(F)ccc1NC(=O)N2CC(=O)N[C@@H](C)c1ncc(C#N)cc1F [Compound B254] | – | – | – | 100.00 µM | 100.00 µM | 100.00 µM
3 | Cc1cccnc1[C@H](C)NC(=O)CN1Cc2c(ccc(F)c2F)NC1=O [Compound B183] | – | – | – | 100.00 µM | 100 µM | 100 µM
4 | C[C@H](NC(=O)CN1C(=O)Nc2ccc(F)c(F)c2[C@H]1C)c1ccc(F)cc1F (relative stereo) [Compound B232, 2-[(4R*)-5,6-Difluoro-4-methyl-2-oxo-1,4-dihydroquinazolin-3-yl]-N-[(1S)-1-(2,4-difluorophenyl)ethyl]acetamide] | – | – | – | 0.04 µM | 0.3963 µM | 0.0328 µM
5 | O=C(CN1Cc2c(ccc(F)c2F)NC1=O)N[C@H]1COCc2cc(F)cnc21 [Compound B363] | – | – | – | 100.00 µM | 100.00 µM | 100.00 µM
6 | Cc1cc(C#N)nnc1[C@@H](C)NC(=O)CN1C(=O)Nc2ccc(F)cc2C12CC2 [Compound B328] | – | – | – | 1.53 µM | 100.00 µM | 100.00 µM
7 | C[C@@H](NC(=O)CN1Cc2c(ccc(F)c2F)NC1=O)c1c(F)cncc1F [Compound B103] | – | – | – | 0.03 µM | 1.132 µM | 0.426 µM
8 | COc1ccc2c(n1)C1(CC1)N(CC(=O)N[C@@H](C)c1ncc(F)cc1F)C(=O)N2 [Compound N68] | 0.13 µM | 1.833 µM | 0.0442 µM | – | – | –
9 | C[C@@H](NC(=O)CN1Cc2c(ccc(F)c2F)NC1=O)c1ncc(F)cc1F [Compound B190] | – | – | – | 17.83 µM | 50.31 µM | 9.504 µM
10 | O=C(CN1C(=O)Nc2ccc(F)c(F)c2C12CC2)N[C@@H]1COc2cc(F)cnc21 [Compound B296] | – | – | – | 0.07 µM | 0.39 µM | 0.06 µM
11 | N#Cc1nccc2c1CN(CC(=O)N[C@@H](CO)c1ccc(F)cc1F)C(=O)N2 [Compound N41] | 1.12 µM | 2.357 µM | 0.0762 µM | – | – | –
12 | Cc1ccnnc1[C@@H](C)NC(=O)CN1Cc2c(ccc(F)c2F)NC1=O [Compound B24] | – | – | – | 100.00 µM | 100 µM | 30.61 µM
13 | C[C@H](NC(=O)[C@H](C)N1Cc2c(ccnc2C(F)(F)F)NC1=O)c1ccc(F)cc1F [Compound N108] | 1.41 µM | 49.28 µM | 0.0727 µM | – | – | –
14 | C[C@H](NC(=O)CN1Cc2nc(Cl)ccc2NC1=O)c1ccc(F)cc1F [Compound N117, 2-{6-Chloro-2-oxo-1H,4H-pyrido[3,2-d]pyrimidin-3-yl}-N-[(1S)-1-(2,4-difluorophenyl)ethyl]acetamide] | 0.17 µM | 0.3795 µM | 0.0146 µM | – | – | –
15 | Cc1nc([C@@H](C)NC(=O)CN2Cc3c(ccc(F)c3F)NC2=O)ncc1C#N (single isomer, unassigned) [Compound B352] | – | – | – | 0.61 µM | 2.36 µM | 4.45 µM
16 | C[C@H](NC(=O)CN1Cc2c(ccnc2OCC(F)F)NC1=O)c1ccc(F)cc1F [Compound N122] | 0.36 µM | 11.42 µM | 0.0567 µM | – | – | –
17 | C[C@H](NC(=O)[C@H](C)N1Cc2c(Br)cccc2NC1=O)c1ccc(F)cc1F [Compound B227] | – | – | – | 0.06 µM | 0.2485 µM | 0.0127 µM
18 | C[C@@H](NC(=O)CN1C(=O)Nc2ccccc2[C@@H]1C)c1ncc(F)cc1F [Compound B159] | – | – | – | 100.00 µM | 100 µM | 100 µM

Row | Structure (SMILES) | Porcine Atria IC25 (Porcine Atria myofibrils; Table 7) | Porcine Ventricle IC25 ([1]; Table 7) | Rabbit Psoas IC25 ([2]; Table 7) | Porcine Atria IC25 (Porcine Atria myofibrils; Table 8) | Porcine Ventricle IC25 ([1]; Table 8) | Rabbit Psoas IC25 ([2]; Table 8)
19 | C[C@@H](NC(=O)CN1Cc2c(ccc(F)c2F)NC1=O)c1ccc2ccccc2n1 [Compound B288] | – | – | – | 0.26 µM | 5.29 µM | 3.98 µM
20 | CC(C)C[C@H](C(=O)N[C@H](C)c1ccc(F)cc1F)N1Cc2cc(F)ccc2NC1=O (single isomer, unassigned) [Compound B67] | – | – | – | 43.94 µM | 9.364 µM | 7.017 µM
21 | Cc1cnc([C@H](C)NC(=O)CN2Cc3cc(F)ccc3NC2=O)c(F)c1 [Compound B195] | – | – | – | 100.00 µM | 100 µM | 100 µM
22 | CC(NC(=O)CN1Cc2c(ccnc2C(N)=O)NC1=O)c1ncc(F)cc1F (stereo not drawn) [Compound N65] | 100.00 µM | 100 µM | 100 µM | – | – | –
23 | N#Cc1cnc2c(n1)CC[C@H]2NC(=O)CN1C(=O)Nc2ccc(C#N)nc2C12CC2 [Compound N135] | 6.42 µM | 100.00 µM | 100.00 µM | – | – | –
24 | C[C@@H](NC(=O)CN1Cc2c(F)cc(F)cc2NC1=O)c1ccc(C#N)cc1F [Compound B42] | – | – | – | 0.59 µM | 3.177 µM | 0.7455 µM
25 | C[C@H](NC(=O)CN1Cc2c(ccc(F)c2F)NC1=O)c1nnc2c(Cl)cc(C(F)(F)F)cn12 [Compound B98] | – | – | – | 100.00 µM | 72.38 µM | 93.47 µM
26 | N#Cc1cc(F)c2c(c1)OC[C@@H]2NC(=O)CN1Cc2c(ccc(F)c2F)NC1=O [Compound B124] | – | – | – | 0.36 µM | 1.87 µM | 0.3262 µM
27 | C[C@H](NC(=O)CN1Cc2cc(CN(C)C)ccc2NC1=O)c1ncc(C#N)cc1F [Compound B252] | – | – | – | 81.49 µM | 60.47 µM | 36.83 µM
28 | N#Cc1cnc2c(c1)OC[C@@H]2NC(=O)CN1C(=O)Nc2cccc(C#N)c2C12CC2 [Compound B311] | – | – | – | 100.00 µM | 86.79 µM | 100.00 µM
29 | C[C@H](NC(=O)CN1Cc2c(C#N)cccc2NC1=O)c1ncc(C#N)cc1F [Compound B126] | – | – | – | 0.07 µM | 0.3461 µM | 0.04006 µM
30 | C[C@H](NC(=O)[C@@H](C)N1Cc2c(F)cccc2NC1=O)c1ccc(F)cc1F [Compound B223] | – | – | – | 0.44 µM | 3.783 µM | 1.426 µM
31 | C[C@H](NC(=O)CN1Cc2nc(OC3CC3)ccc2NC1=O)c1ccc(F)cc1F [Compound N113] | 22.12 µM | 73.85 µM | 0.3281 µM | – | – | –
32 | C[C@@H](NC(=O)CN1Cc2c(ccc(F)c2F)NC1=O)c1ncc(C2COC2)cn1 [Compound B282] | – | – | – | 86.13 µM | 100.00 µM | 100.00 µM
33 | C[C@H](NC(=O)[C@H](C)N1Cc2c(ccc(F)c2F)NC1=O)c1ccc(F)cc1F [Compound B237] | – | – | – | 0.28 µM | 8.122 µM | 0.3164 µM
34 | CC(C)c1cc(F)cnc1[C@H](C)NC(=O)CN1Cc2c(ccc(F)c2F)NC1=O [Compound B21] | – | – | – | 100.00 µM | 100 µM | 100 µM
35 | Cc1cc(F)cnc1[C@H](C)NC(=O)CN1Cc2c(ccc(F)c2F)NC1=O [Compound B39] | – | – | – | 0.02 µM | 0.0483 µM | 0.0203 µM
